Ends that are not written are not given here.

The subject of assay [1] is TLR4 (HEK-Blue hTLR4 cells). Nature of the assay: SEAP activity (NF-κB), HEK-Blue hTLR4, LPS. It counts as cell-based. As to conditions: n ≥ 3; for LPS-induced NF-κB activity (SEAP), peptides in the absence of CPP: not conjugated with CPP. As for the experimental part: (§1) HEK-Blue-hTLR4 cells were seeded at a density of 2 × 10^5 cells/well and grown overnight in 24-well plates (BD Biosciences). The next day, the supernatant was removed, and the medium was replaced with fresh medium. Aliquots of supernatants (200 µl) from the treated cells were transferred to microcentrifuge tubes and heated for 10 min at 65 °C on a heating block (FINEPCR Co., Seoul, Korea). The supernatants were then transferred into new 96-well plates (BD Biosciences), and SEAP production was quantified using the HEK-Blue detection kit (InvivoGen). HEK-Blue IL-1R cells were seeded at a density of 2 × 10^5 cells/well and grown in 24-well plates (BD Biosciences) overnight, and SEAP production was measured by means of QUANTI-Blue (InvivoGen). Absorbance was measured on a microplate reader (spectrophotometry system; Molecular Devices Inc., Silicon Valley, CA, USA) or a Cytation 5 Cell Imaging Multi-Mode Reader (Bio-Tek Instruments, Winooski, VT, USA) at 620 nm.
The TLR4-mediated response to LPS leads to a direct interaction between the TIR domains of TIRAP and MyD88, resulting in the subsequent activation of the MyD88-dependent downstream cascade. On the other hand, LPS-induced activation of TLR4 can cause the interaction between the TIR domains of TRAM and TRIF, which thereafter initiates MyD88-independent downstream signaling. Multiple peptides were designed from the TIR domain of TIRAP to possibly target the TIR domain of TLR4. […] The inhibitory effects of the peptides (TIP1 and TIP2) in the absence of CPP were evaluated by measuring the SEAP activity in HEK-Blue hTLR4 cells. […] To evaluate the specific binding of TIP1 to TLRs, we measured the NF-κB activity and protein expression of NF-κB and MAPKs by the SEAP activity assay and western blotting in HEK-Blue IL-1R cells. […]

Assay [2] relates to TLR signaling (RAW 264.7 cells). In words: TNF-α ELISA, RAW 264.7, peptides not conjugated with CPP. The note with it: TIP1 without CPP 12.5, 25, and 50 µM (Fig. 2l); Poly(I:C) 24 h (Supplementary Fig. 1c). It counts as cell-based, mouse. Here is the method:
RAW 264.7, THP1, and mBMDM cells were seeded at a density of 2 × 10^5 cells/well in 96-well plates (BD Biosciences) or at 5 × 10^5 cells/well in 24-well plates (BD Biosciences) and were grown overnight. After 24 h of treatment, IFN-β secretion was measured by means of the LEGEND MAX Mouse IFN-β precoated ELISA Kit (BioLegend), IL-6 secretion was assessed by a Mouse IL-6 ELISA MAX Deluxe (BioLegend) or Mouse IL-6 Platinum ELISA (eBioscience), TNF-α production was assessed using the Mouse TNF alpha ELISA Ready-SET-Go! kit (eBioscience), and the IL-1β cytokine level was measured with the Mouse or Human IL-1β ELISA Ready-SET-Go! kit (eBioscience). hBMNCs were seeded at a density of 4 × 10^4/well in 96-well plates (BD Biosciences) and then grown overnight. After 24 h of treatment, the secretion levels of IL-6 and TNF-α were assessed using Human IL-6 ELISA MAX Deluxe (BioLegend) and Human TNF alpha ELISA MAX Deluxe (BioLegend), respectively. The plates were then analyzed on a microplate spectrophotometer system (Molecular Devices) at the appropriate wavelength.
Fig. 2 Inhibitory effects of TIP1 on TLR signaling pathways. a Cell viability was measured by the MTT assay upon the treatment of RAW 264.7 cells with various concentrations of TIP1 (12.5, 25, or 50 µM) for 24 h. […] The secretion of IFN-β was measured by an ELISA. q hPBMCs were treated with TIP1 in the presence or absence of LPS. […]
In general terms: In an ELISA, binding on a coated surface is turned into a signal by an enzyme label.

The test system of assay [3] is IL-1R (HEK-Blue IL-1R cells). In words: SEAP activity (NF-κB), HEK-Blue IL-1R, IL-1β. It counts as cell-based. As to conditions: peptide 1 h before IL-1β (300 pg/ml), 24 h; n ≥ 3. As for the experimental part:
as §1
The TLR4-mediated response to LPS leads to a direct interaction between the TIR domains of TIRAP and MyD88, resulting in the subsequent activation of the MyD88-dependent downstream cascade. […] The inhibitory effects of the peptides (TIP1 and TIP2) in the absence of CPP were evaluated by measuring the SEAP activity in HEK-Blue hTLR4 cells. […]

Assay [4] concerns the target T1, TLR4 TIR domain BB loop peptide (Homo sapiens).
T1 chain: RDFIPGVAIAA
Nature of the assay: SPR. A general note: In SPR one partner is held on a chip, and binding of the other changes the refractive index at the surface.

Turning to “SHCRVLLI [TIP1 without CPP, TIP1 peptide not conjugated with CPP]”, the “LPS-induced NF-κB activity (SEAP), peptides in the absence of CPP” value in assay [1] was “neither peptide significantly inhibited NF-κB activity”. In addition, the “inhibitory effect on TNF-α secretion after removal of CPP” value in assay [2] is “loss of the inhibitory effect”.
On the same counts, the results for “TIPLLS [TIP2 without CPP, TIP2 peptide not conjugated with CPP]” are “neither peptide significantly inhibited NF-κB activity” and “loss of the inhibitory effect”.
“TIPLLS [TIP2, TIPLLS from the TIR domain of TIRAP, conjugated in tandem to a cell-penetrating peptide (…) at N terminus]”: in assay [1] (CPP-conjugated peptide, 12.5 to 50 μM, peptide 1 h before LPS, 24 h), the “LPS-induced SEAP activity (NF-κB)” value is reported as “did not hinder LPS-induced NF-κB activity”. For the same molecule, the “IL-1β-induced NF-κB activity (SEAP)” value in assay [3] was “did not exert any significant inhibitory effects”.
For orientation: Kd means the concentration at which binding is half-saturated. Read a low Kd as tighter binding. For RQIKIWFQNRRMKWKKSHCRVLLI (also: biotinylated and immobilized) [TIP1 (TIRAP TIR-derived decoy peptide with N-terminal antennapedia CPP)], the Kd in assay [4] was determined as 40.2 µM.
